Data taken from publication PMC6523531, “Mechanistic Studies on the Absorption-Enhancing Effects of Gemini Surfactant on the Intestinal Absorption of Poorly Absorbed Hydrophilic Drugs in Rats” (Pharmaceutics, 2019).

System: Caco-2 cell monolayers
Experiment: Transepithelial electrical resistance (TEER) of Caco-2 cell monolayers
Format: cell-based, Human
Protocol: Caco-2 cells (passage 45) were cultured in 175-cm^2 culture flask (Thermo Fisher Scientific™, Waltham, MA, USA). The culture medium consisted of DMEM containing 10% FBS, 0.1 mM MEM–NEAA, 2 mM glutamine, 100 U/mL penicillin, and 100 µg/mL streptomycin [30]. Cells were cultured in a humidified atmosphere of 5% CO2 at 37 °C. The culture medium was changed every two days. When the cultured Caco-2 cells became sub-confluent, they were seeded onto 12-mm Transwell® with 0.4-µm pore polycarbonate membrane inserts (Corning Inc., New York, NY, USA) at a density of 1 × 10^5 cells/insert. The transepithelial transport studies were performed when the transepithelial electrical resistance (TEER) values were more than 500 Ω·cm^2 (i.e., after 21 days). Briefly, after removing the incubation medium by aspiration, the apical and basal sides were washed thrice by Hank’s Balanced Salt (HBSS) solution (pH 7.4). The cells were incubated in HBSS (pH 6.0) for the apical side and HBSS (pH 7.4) for the basal side for 20 min at 37 °C. HBSS supplemented with 1 mg/mL glucose was used in all cell culture experiments. After removing the washing solution by aspiration, 500 µL of 10 µM CF in a HBSS (pH 6.0) solution with or without various concentrations (0.001% v/v, 0.01% v/v, 0.025% v/v, 0.05% v/v, and 0.1% v/v) of SLG-30, 0.1% (w/v) and 1% (w/v) NaGC or 0.05% (w/v) sodium laurate were added to the apical side at zero time, whereas precisely 1500 µL of HBSS (pH 7.4) was added to the basal side at 37 °C. The cells were kept at 37 °C and 5% CO2 and were continuously agitated on a shaker during the transport experiments.
The TEER values were measured by Millicell® (ERS-2 Volt-Ohm Meter, Billerica, MA, USA) at the predetermined times up to 24 h, and the initial values were considered as 100%. The samples from the basal side were withdrawn at predetermined time points up to 24 h. The samples were replaced with an equal volume of HBSS (pH 7.4). CF was determined as previously mentioned. The apparent permeability coefficients Papp (cm/s) for the transported CF was determined by the following equation: Papp=dXR/dt×1/A×1/C0 where Papp is the apparent permeability coefficient in centimeters per second, XR is the amount of CF in moles in the receptor side, dXR/dt is the flux across the monolayer, A is the diffusion area (i.e., in square centimeters), and C0 is the initial concentration of CF in the donor side in moles per milliliter.

CCCCCCCCCCCC(=O)NC(CCC(=O)NCCCCC(NC(=O)CCC(NC(=O)CCCCCCCCCCC)C(=O)O)C(=O)O)C(=O)O (stereo not drawn) [SLG-30, sodium dilauramidoglutamide lysine]
TEER values (SLG-30 at all concentrations 0.001-0.1% (v/v), first hour): significant decrease
TEER recovery (higher concentrations of SLG-30, without removing SLG-30, up to 24 h): did not recover to the baseline
TEER recovery (lower concentrations of SLG-30, without removing SLG-30, up to 24 h): started to recover
